Values quoted from earlier work in patent US10772852B2, “Compositions and methods for combination pharmacological treatments to induce a prolonged, mild decrease in core body temperature” (priority 2015, dated 2020).

How the values were obtained:
mice = details: Reilly et al. 2013
[1] = Boyle et al. 2013
[2] = system: women with ovarian cancer; details: on average, Kumar et al. (2013)

Compound	effect on obesity, diabetes, and fatty liver (mice)	reduction in the risk of cardiovascular events ([1]; 29 different studies)	reduction in the risk of MI ([1]; nine studies)	reduction in the risk of heart failure ([1]; seven studies)	likelihood to survive for 5 years after diagnosis versus women not taking the drug [2]
CC(C)c1ccc2oc3nc(N)c(C(=O)O)cc3c(=O)c2c1 [amlexanox]	reverse obesity, diabetes, and fatty liver in mice	–	–	–	–
CN(C)C(=N)N=C(N)N [metformin]	–	10%	12%	10%	nearly four times more likely to survive for 5 years
